For 90 compounds, IC50 results are on record in PubChem BioAssay AID2823 (Broad Institute, 2010).

The source made the active and inactive calls. No rule for the calls is given here.

The target in the test is RanGTP-importin-beta complex (human Ran / KPNB1). In words: Ran–importin-beta interaction inhibitors, confirmation, biochemical, FRET, CFP/YFP, cell-free homogeneous (AID 2823). The note with it: CFP-Ran/YFP-importin-beta FRET ratio.
Consider `CC(C)c1ccc(CN2CCC(Oc3ccc(C(=O)N4CCCC4)cc3)CC2)cc1`, for which the IC50 (in general, the concentration that inhibits the measured activity by half) is > 50 µM (inactive).

For the compound `COc1cc2c(cc1NC(=S)Nc1cccc3ccccc13)oc1ccccc12`, the IC50 was > 50 µM (inactive).

Regarding `CCn1nc(NC(=O)c2ccccn2)c2cc3cccc(C)c3nc21`, the IC50 was 2.68 µM.

Regarding `Cc1cc(O)ccc1NC1=CC(=O)CC(C)(C)C1`, the IC50 was > 50 µM (inactive).

`COc1ccccc1/C=C/c1nc(C#N)c(N(C)C)o1`: the IC50 was 17.4 µM.

As for `O=C(O)Cn1cc(/C=C2/SC(=O)N(CC(=O)N3CCCCCC3)C2=O)c2ccccc21`, the IC50 was 44.1 µM.

Regarding `CCOC(=O)C/C(=N\Nc1ncnc2ccccc12)c1ccccc1`, the IC50 was > 50 µM (inactive).

Turning to `COC(=O)C1=CN(CC2CCCO2)C=C(C(=O)OC)C1c1cccc(O)c1` (stereo not given), the IC50 was 14.1 µM.

Consider `Oc1cccc(Nc2c3ccccc3nc3ccccc23)c1`, for which the IC50 was > 50 µM (inactive).

With `O=C1NC(c2cccc([N+](=O)[O-])c2)Oc2ccccc21` (stereo not given), the IC50 was > 50 µM (inactive).

For `COc1ccc2cc(C(=O)N/N=C/c3sc4ccccc4c3O)ccc2c1`, the IC50 was > 50 µM (inactive).

Turning to `CN(Cc1cnc2nc(N)nc(N)c2n1)c1ccc(C(=O)N[C@@H](CCC(=O)O)C(=O)O)cc1`, the IC50 was > 50 µM (inactive).

On to `CCOC(=O)CC(=O)CSc1nc2c(cc1C#N)CCC2`, for which the IC50 is 29.2 µM.

Consider `COCCNC(=O)C(C)OC(=O)c1cc2occc2n1C` (stereo not given), for which the IC50 was > 50 µM (inactive).

Turning to `Cc1c(CC(=O)N2CCN(C(=O)C3COc4ccccc4O3)CC2)c(=O)oc2cc(O)c(Cl)cc12` (stereo not given), the IC50 was 4.84 µM.

As to `CCOc1ccc(NS(=O)(=O)c2ccc3c(c2)CCN3C(=O)CCC(=O)O)cc1`, the IC50 was > 50 µM (inactive).

Take `C=CCn1c(C)c(C(C)=O)c(N2CCN(C(c3ccccc3)c3ccccc3)CC2)nc1=S`: the IC50 is > 50 µM (inactive).

With `Cc1cccc(C)c1NC(=O)C1=C(O)c2sccc2N(C)S1(=O)=O`, the half-maximal inhibitory concentration (IC50) is 4.36 µM.

In the case of `O=C(NNc1c2ccccc2nc2ccccc12)c1ccc(O)cc1O`, the IC50 is > 50 µM (inactive).

With `CC1(C)CC(=O)C=C(Nc2ccccc2F)C1`, the IC50 is > 50 µM (inactive).

On to `CC(NCc1cccs1)C(=O)NC1CCCCC1` (stereo not given), for which the IC50 is > 50 µM (inactive).

For the compound `CCSc1nnc(-c2cc(Br)ccc2N=Cc2c(C)[nH]n(-c3ccccc3)c2=O)c(=O)[nH]1`, the IC50 was > 50 µM (inactive).

On to `Clc1ccc(-c2nnc(SCc3nc4ccccc4[nH]3)o2)c(Cl)c1`, for which the IC50 is > 50 µM (inactive).

Take `Cc1cccc(Nc2nnc(SC/C(O)=C(\C#N)c3nc4ccccc4[nH]3)s2)c1C`: the IC50 is > 50 µM (inactive).

Take `Cc1sc2ncn(CC(=O)NCCCC(=O)N3CCN(Cc4ccc5c(c4)OCO5)CC3)c(=O)c2c1C`: the IC50 is > 50 µM (inactive).

Take `Cc1ccc(S(=O)(=O)N(C)Cc2ccc(C(=O)N/N=C3\CC(=O)CC(C)(C)C3)cc2)cc1`: the IC50 was > 50 µM (inactive).

Consider `Cc1ccc(-c2nc3cc(N)ccc3o2)cc1`, for which the IC50 was > 50 µM (inactive).

For the compound `CCn1c(SCC(=O)N(Cc2ccccc2)C2CCS(=O)(=O)C2)nc2ccccc2c1=O` (stereo not given), the IC50 was > 50 µM (inactive).

Turning to `NC(=O)c1ccc(F)cc1`, the IC50 is > 50 µM (inactive).

Regarding `COc1ccc2cc(-c3nc4ccccc4n3C)c(=O)oc2c1`, the half-maximal inhibitory concentration (IC50) is 19.1 µM.

Consider `OCCNCc1cccc(OCc2ccccc2Cl)c1`, for which the IC50 is > 50 µM (inactive).

As for `N#C/C(=C\c1ccc(O)c(Br)c1)C(=O)NCc1ccccc1`, the IC50 is 25.8 µM.

Take `C=C(C)Cn1c(SCC(=O)O)nnc1-c1ccc(OC)cc1`: the IC50 was > 50 µM (inactive).

Turning to `CC(C)C1C2=C(CC(C)(C)CC2=O)ON1c1ccccc1` (stereo not given), the IC50 was > 50 µM (inactive).

Turning to `CCOC(=O)C1(CCc2ccccc2)CCN(Cc2ccccn2)CC1`, the IC50 was > 50 µM (inactive).

Take `Fc1ccccc1N1CCN(c2nc3ccccc3n3nnnc23)CC1`: the IC50 was 37.8 µM.

For the compound `Cc1nn(-c2ccccc2)c2sc(C(=O)NC3CCCCC3)cc12`, the IC50 is > 50 µM (inactive).

Take `CC(C)NC(=O)NC(=O)COC(=O)c1ccccc1O`: the IC50 was > 50 µM (inactive).

As to `N=c1oc2ccccc2cc1-c1nc(-c2ccc(Cl)cc2)cs1`, the IC50 was 34.2 µM.

Turning to `Fc1ccc(N/N=C/C=C/c2ccccc2)c(F)c1`, the IC50 is > 50 µM (inactive).

For `COc1ccc2c(C)c(C(=O)N3CC[C@@H](N4CCC(O)CC4)[C@H](O)C3)oc2c1`, the IC50 was > 50 µM (inactive).

Turning to `CNC(=O)c1cc2c(ccc3ccccc32)oc1=N`, the IC50 is 5.26 µM.

On to `O=c1[nH]c(Nc2ccccn2)cc2ccccc12`, for which the IC50 is > 50 µM (inactive).

`Cc1nc(Nc2cnc(/C=C/c3cc(C(=O)Nc4cccc(C(F)(F)F)c4)ccc3C)cn2)cc(N2CCNCC2)n1`: the IC50 is 19.7 µM.

For the compound `CN(C)CCCn1c(N)c(C#N)c2nc(C#N)c(C#N)nc21`, the IC50 was 21.9 µM.

As for `CCN1/C(=C\C=C\C2=[N+](CC)c3ccccc3C2(C)C)C(C)(C)c2ccccc21`, the concentration for half-maximal inhibition (IC50) was 9.18 µM.

In the case of `O=C(NC1CC1)c1ccc2c(Cl)c3c(nc2c1)CCCC3`, the IC50 was > 50 µM (inactive).

Regarding `Cc1ccccc1-n1c(=O)cc(N2CC(C)OC(C)C2)[nH]c1=O` (stereo not given), the IC50 is > 50 µM (inactive).

`Cc1[nH]c2ccccc2c1/C=C/c1nc2ccccc2c(=O)n1CCO`: the IC50 was > 50 µM (inactive).

In the case of `O=C(COC(=O)c1ccc2ccccc2c1)NCCCc1ccccc1`, the IC50 is > 50 µM (inactive).

Consider `Cc1ccccc1-n1nc2c(c1NC(=O)c1cc3ccccc3oc1=O)CS(=O)(=O)C2`, for which the IC50 is > 50 µM (inactive).

In the case of `Cn1cnc(S(=O)(=O)N2CCN(c3ccc(Cl)cc3)CC2)c1`, the IC50 is > 50 µM (inactive).

As for `COc1ccc2c(c1)C(c1ccc(C)o1)=NNC(c1cccnc1)=N2`, the IC50 was > 50 µM (inactive).

`CCOC(=O)N1CCN(c2cc(=O)n(C3CCCCC3)c(=O)[nH]2)CC1`: the IC50 was > 50 µM (inactive).

As to `Cc1cccc(C(=O)Nc2sc(C)c(-c3ccccc3)c2C#N)c1`, the IC50 is > 50 µM (inactive).

Consider `COCCCn1c(=N)c(C(=O)NCc2ccc3c(c2)OCO3)cc2c(=O)n3ccccc3nc21`, for which the IC50 was 28.4 µM.

For the compound `O=S(=O)(Nc1nc2ccccc2nc1-[n+]1cccc(N=C([O-])c2ccccc2Cl)c1)c1ccccc1`, the half-maximal inhibitory concentration (IC50) is 6.27 µM.

`Cc1c(OC(=O)N(C)C)ccc2c1O/C(=C\c1ccco1)C2=O`: the IC50 is 12.5 µM.

Consider `Cc1ccccc1NC(=O)/C(C#N)=C\c1cn(CC(=O)O)c2ccccc12`, for which the IC50 is 47.6 µM.

In the case of `CCCN1CCC2(CC1)C(C#N)=C(N)Oc1c2sc2nc(C)cc(C)c12`, the IC50 is > 50 µM (inactive).

For the compound `CN1CCN(C(=O)c2ccccc2Nc2ccc(SC(F)F)cc2)CC1`, the IC50 is > 50 µM (inactive).

Turning to `O=C(c1ccc(Br)cc1)c1cc2ccc(O)cc2oc1=O`, the IC50 is 19.2 µM.

For `CC(C)c1cc(N2CCN(C(=O)c3ccco3)CC2)n2c(nc3ccccc32)c1C#N`, the IC50 is 24.7 µM.

In the case of `CCN1CCc2c(sc(NC(=O)c3ccc(S(=O)(=O)N4CC(C)OC(C)C4)cc3)c2C(N)=O)C1` (stereo not given), the IC50 was > 50 µM (inactive).

As to `Cc1ccc(C(=O)NNC2CC(=O)N(c3ccc4c(c3)OCCO4)C2=O)cc1` (stereo not given), the IC50 is > 50 µM (inactive).

Regarding `CCCc1cc(=O)oc2c(CN(CC)CC)c(O)c(Cl)cc12`, the 50% inhibitory concentration (IC50) is 43.4 µM.

Take `Nc1nonc1-n1nnc(C(=O)N/N=C/c2ccccc2)c1CSc1ccc(Cl)cc1`: the IC50 was > 50 µM (inactive).

For `CCN(CC)S(=O)(=O)c1ccc2oc(C(=O)NCCCN3CCOCC3)c(C)c2c1`, the IC50 was > 50 µM (inactive).

Consider `COC(=O)C1=CN(C2CC2)C=C(C(=O)OC)C1c1ccc(C(F)(F)F)cc1`, for which the IC50 is 30.8 µM.

For `Cc1ccc(NC(=O)COC(=O)Cc2ccsc2)c(C)c1`, the IC50 is > 50 µM (inactive).

In the case of `CC1CN(c2cc(=O)n(-c3cccc(Br)c3)c(=O)[nH]2)CC(C)O1` (stereo not given), the IC50 was > 50 µM (inactive).

For `CO/N=C\c1cc(C(=O)c2ccc(Cl)cc2Cl)cn1C`, the IC50 was > 50 µM (inactive).

Consider `CCOC(=O)C1=C(C)NC2=C(C(=O)C(C(=O)OCC)C(c3cccc(OC)c3)C2)C1c1ccccn1` (stereo not given), for which the IC50 was 22.2 µM.

With `C=CCOc1c(Br)cc(CNc2ccc(NC(=O)C(C)C)c(OC)c2)cc1OC`, the IC50 was > 50 µM (inactive).

On to `CNS(=O)(=O)c1cc(OC)c(OC)cc1CC(=O)OC`, for which the IC50 was > 50 µM (inactive).

Turning to `COc1ccc(-c2nc(/C=C3\C(C)=Nc4ccccc43)c(O)o2)cc1`, the IC50 is > 50 µM (inactive).

Turning to `COCC(=O)Nc1nnc(COc2ccc(Cl)cc2)s1`, the IC50 was > 50 µM (inactive).

Consider `Cc1nc2nc(CCNS(=O)(=O)c3ccc(Cl)cc3)cn2nc1C`, for which the IC50 was 41.2 µM.

Consider `CN1CCN(c2cc(=O)n(-c3ccc(Cl)cc3)c(=O)[nH]2)CC1`, for which the IC50 is > 50 µM (inactive).

On to `C#CCOc1ccc(C2C3=C(CC(C)(C)CC3=O)N(CC(=O)O)C3=C2C(=O)CC(C)(C)C3)cc1OC`, for which the IC50 is 32 µM.

For `Cc1cccc(-n2c(C)cc(/C=C3\C(=N)N4N=C(CC(C)C)SC4=NC3=O)c2C)c1`, the IC50 is 10.6 µM.

For `CCN1/C(=C/C=C/c2sc3ccccc3[n+]2CC)Sc2ccccc21`, the IC50 is 16.6 µM.

Take `Cc1cccc2cc(C#N)c(NCCNC(=S)NCCCN3CCOCC3)nc12`: the IC50 was 39.6 µM.

As to `NC(=O)CN(Cc1ccccc1)S(=O)(=O)c1ccc2c(c1)OCCO2`, the IC50 was > 50 µM (inactive).

With `CC1(C)CC(=O)C=C(NNC(=O)C2CCCCC2)C1`, the IC50 is > 50 µM (inactive).

With `CCOC(=O)N1CCN(c2cc(=O)n(-c3ccccc3C)c(=O)[nH]2)CC1`, the IC50 was > 50 µM (inactive).

As to `Cc1ccc(N2CC(=O)N(NC(=O)c3sc4nc(C)cc(C)c4c3N)CC2=O)cc1`, the IC50 is > 50 µM (inactive).

For `COc1cc(S(=O)(=O)NCCCN2CCOCC2)ccc1Cl`, the IC50 was > 50 µM (inactive).

For `COCCCNC(=O)/C(C#N)=C/c1c(N2CCN(c3ccccc3)CC2)nc2ccccn2c1=O`, the IC50 is 25.9 µM.

`COc1ccc(-n2cnc3cc(NCc4cccs4)ccc32)cc1`: the IC50 is > 50 µM (inactive).
